Read-outs that look alike come from different tables or passages of the source.
Assays:
[1] = system: Vero cells; conditions: read-out: CC50 Vero
[2] = system: murine leukemia L1210; assay: Cytostatic activity assay, L1210 cells; type: cell-based; conditions: read-out: IC50 L1210 (compound concentration required to inhibit tumor cell proliferation by 50%)
[3] = system: HIV-1 (IIIB); assay: Inhibition of HIV-1 (IIIB)-induced cytopathicity (giant cell formation) in CEM cells; type: cell-based; conditions: read-out: EC50 HIV-1 (concentration required to inhibit HIV-induced giant cell formation by 50%); HIV-1, CEM cell cultures
Method: (§1) A variety of glycopeptide antibiotic derivatives of vancomycin, eremomycin and teicoplanin including their aglycon derivatives were evaluated for their inhibitory activity against HIV-1 (IIIB) and HIV-2(ROD) in CEM cell cultures.

[4] = system: FCV; assay: Feline corona virus assay in Feline Crandel kidney cells (MTS); type: cell-based; conditions: for EC50: FCV in FCK cells, read-out: EC50 FCV
Method: Feline Crandel kidney cells were seeded in 96-well microtiter plates at 24,000 cells/well. Then, 24 hrs later, an appropriate inoculum of FCV is added together with 5-fold dilutions of the test compounds. After 4 days, a MTS/PMS solution was added to each well. Following a 90 min incubation period at 37° C., the optical density of the wells was read at 498 nm in a microplate reader.

[5] = system: FCK cells; conditions: read-out: CC50 FCK; FCK cells
[6] = system: human lymphocyte Molt4/clone 8; assay: Cytostatic activity assay, Molt4/clone 8 cells; type: cell-based; conditions: read-out: IC50 Molt4/C8 (compound concentration required to inhibit tumor cell proliferation by 50%)
[7] = system: human lymphocyte CEM; assay: Cytostatic activity assay, CEM cells; type: cell-based; conditions: read-out: IC50 CEM (compound concentration required to inhibit tumor cell proliferation by 50%)
[8] = system: HIV-2(ROD); assay: Inhibition of HIV-2 (ROD)-induced cytopathicity (giant cell formation) in CEM cells; type: cell-based; conditions: read-out: EC50 HIV-2 (concentration required to inhibit HIV-induced giant cell formation by 50%); HIV-2, CEM cell cultures
Method: as §1

[9] = system: SARS virus (strain Frankfurt-1); assay: microbe, parasite or virus in culture; type: cell-based, human corona (SARS) virus; conditions: SARS virus in Vero cells; read-out: EC50 SARS virus
[10] = system: HEL cells
[11] = system: VZV (wild-type strains); assay: Anti-VZV assay (wild-type strains): virus-induced cytopathicity in HEL cell cultures; type: cell-based, varicella-zoster virus; conditions: HEL cell cultures
[12] = system: CMV; assay: Anti-CMV assay: virus-induced cytopathicity in HEL cell cultures
[13] = system: HEL cells; conditions: read-out: CC50 (HEL), HEL cells
[14] = VZV strain OKA, read-out: EC50 VZV (OKA)
[15] = VZV strain YS, read-out: EC50 VZV (YS)
[16] = read-out: EC50 CMV AD-169, CMV strain AD-169, HEL cell cultures
[17] = read-out: EC50 CMV Davis, CMV strain Davis, HEL cell cultures

| Structure (SMILES) | CC50 [1] [µM] | IC50 [2] [µM] | EC50 [3] [µM] | EC50 [4] [µM] | CC50 [5] [µM] | IC50 [6] [µM] | IC50 [7] [µM] | EC50 [8] [µM] | EC50 [9] [µM] | MTC (HEL) ([10]; anti-CMV table) | MTC (HEL) ([10]; anti-VZV table) | EC50 [11, 14] [µM] | EC50 [11, 15] [µM] | anti-CMV activity [12] | EC50 [12, 16] [µM] | CC50 ([13]; anti-CMV table) [µM] | CC50 ([13]; anti-VZV table) [µM] | EC50 [12, 17] [µM] | activity against FCV [4] |
| --- | --- | --- | --- | --- | --- | --- | --- | --- | --- | --- | --- | --- | --- | --- | --- | --- | --- | --- | --- |
| NC1C(=O)NC2Cc3ccc(c(Cl)c3)Oc3cc4cc(c3O)Oc3ccc(cc3Cl)C(O)C3NC(=O)C(NC(=O)C4NC(=O)C(NC2=O)c2cc(O)cc(c2)Oc2cc1ccc2O)c1ccc(O)c(c1)-c1c(O)cc(O)cc1C(C(=O)N(C(=O)NC1CCCCC1)C1CCCCC1)NC3=O (centres unmarked) [Compound 167] | > 100 | 130 ± 1 | 6 ± 2.6 | 7.7 | 62 | 132 ± 9 | 165 ± 34 | 10 ± 2.8 | 47 |  |  |  |  |  |  |  |  |  |  |
| CCCCCCCCCNCc1c(O)cc2c(c1O)-c1cc(ccc1O)C1NC(=O)C3NC(=O)C4NC(=O)C(Cc5ccc(c(Cl)c5)Oc5cc3cc(c5O)Oc3ccc(cc3Cl)C(O)C(NC1=O)C(=O)NC2C(=O)NCCCN(C)C)NC(=O)C(N)c1ccc(O)c(c1)Oc1cc(O)cc4c1 (centres unmarked) [Compound 21] |  | 43 ± 6 | 2.2 |  |  | 136 ± 33 | 179 ± 1 | 6.5 ± 0.7 |  | 5 to 50 µM | 5 to 50 µM | 1.3 | 2 | anti-CMV activity | 8 | 107 | 107 |  |  |
| O=C(NC1C(=O)NC2Cc3ccc(c(Cl)c3)Oc3cc4cc(c3O)Oc3ccc(cc3Cl)C(O)C3NC(=O)C(NC(=O)C4NC(=O)C(NC2=O)c2cc(O)cc(c2)Oc2cc1ccc2O)c1ccc(O)c(c1)-c1c(O)cc(O)cc1C(C(=O)O)NC3=O)C(=O)c1c[nH]c2ccccc12 (centres unmarked) [Compound 163] | > 100 |  | 10 | 2.2 | 63 |  |  | 15 | 26 |  |  |  |  |  |  |  |  |  |  |
| NC1C(=O)NC2Cc3ccc(c(Cl)c3)Oc3cc4cc(c3O)Oc3ccc(cc3Cl)C(O)C3NC(=O)C(NC(=O)C4NC(=O)C(NC2=O)c2cc(O)cc(c2)Oc2cc1ccc2O)c1ccc(O)c(c1)-c1c(O)cc(O)cc1C(C(=O)N1CCN(Cc2ccc4ccccc4c2)CC1)NC3=O (centres unmarked) [Compound 25] |  | 175 ± 44 | 2.1 ± 1.3 |  |  | 47 ± 4 | 113 ± 28 | 5 |  | 20 to 200 µM | 20 to 200 µM | 1 | 0.6 | anti-CMV activity | 30 | > 50 | > 50 |  |  |
| NC1C(=O)NC2Cc3ccc(c(Cl)c3)Oc3cc4cc(c3O)Oc3ccc(cc3Cl)C(O)C3NC(=O)C(NC(=O)C4NC(=O)C(NC2=O)c2cc(O)cc(c2)Oc2cc1ccc2O)c1ccc(O)c(c1)-c1c(O)cc(O)cc1C(C(=O)O)NC3=O (centres unmarked) [Compound 159] | > 100 |  |  | 9.9 | 85 |  |  |  | 28 |  |  |  |  |  |  |  |  |  |  |
| O=C1NC2C(=O)NC3C(=O)NC4C(=O)NC(C(=O)NC(C(=O)O)c5cc(O)cc(O)c5-c5cc4ccc5O)C(O)c4ccc(c(Cl)c4)Oc4cc3cc(c4O)Oc3ccc(cc3Cl)CC1NC(=O)C(NCc1ccc(-c3ccccc3)cc1)c1ccc(O)c(c1)Oc1cc(O)cc2c1 (centres unmarked) [Compound 122] |  |  |  |  |  |  |  |  |  | 20 to 50 µM | 20 to 50 µM | 1 | 1 |  | > 20 | > 50 | > 50 |  |  |
| CCCCCCCCCC[N+](C)(C)CCCNC(=O)C1NC(=O)C2NC(=O)C(NC(=O)C3NC(=O)C4NC(=O)C(Cc5ccc(c(Cl)c5)Oc5cc3cc(c5O)Oc3ccc(cc3Cl)C2O)NC(=O)C(N)c2ccc(O)c(c2)Oc2cc(O)cc4c2)c2ccc(O)c(c2)-c2c(O)cc(O)cc21 (centres unmarked) [Compound 27] |  | 9.1 ± 0.9 | 1.5 ± 0.42 |  |  | 28 ± 0.4 | 18 ± 3 | 2.3 ± 0.21 |  | ≧2-50 μM | ≧2-50 μM | 1 | 0.8 | anti-CMV activity | ≥ 5 | > 200 | > 200 | 3.5 |  |
| NC1C(=O)NC2Cc3ccc(c(Cl)c3)Oc3cc4cc(c3O)Oc3ccc(cc3Cl)C(O)C3NC(=O)C(NC(=O)C4NC(=O)C(NC2=O)c2cc(O)cc(c2)Oc2cc1ccc2O)c1ccc(O)c(c1)-c1c(O)cc(O)cc1C(C(=O)NC1CC2CCC1C2)NC3=O (centres unmarked) [Compound 162] | > 100 |  | 4.5 | 4.7 | ≥ 100 |  |  | 11 | 22 |  |  |  |  |  |  |  |  |  |  |
| CCCCCCCCCC[N+](C)(C)CCCNC(=O)C1NC(=O)C2NC(=O)C(NC(=O)C3NC(=O)C4NC(=O)C(Cc5ccc(c(Cl)c5)Oc5cc3cc(c5O)Oc3ccc(cc3Cl)C2O)NC(=O)C(N)c2ccc(O)c(c2)Oc2cc(O)cc4c2)c2ccc(O)c(c2)-c2c1cc(O)c(CN1CC[N+](C)(CCCCCCCCCC)CC1)c2O (centres unmarked) [Compound 39] |  | 7.3 ± 0.3 |  |  |  | 14 ± 3 | 14 ± 2 | 1.3 ± 0.21 |  | ≧5 μM | ≧5 μM | 0.9 | 0.81 |  | > 2 | 170 | 170 | 4 |  |
| CCCCCCCCCCCCNCc1c(O)cc2c(c1O)-c1cc(ccc1O)C1NC(=O)C3NC(=O)C(CC(N)=O)NC(=O)C(NC(=O)C(CC(C)C)NC)C(O)c4ccc(c(Cl)c4)Oc4cc3cc(c4OC3OC(CO)C(O)C(O)C3OC3CC(C)(N)C(O)C(C)O3)Oc3ccc(cc3)C(OC3CC(C)(N)C(O)C(C)O3)C(NC1=O)C(=O)NC2C(=O)O (centres unmarked) [Compound 64] | > 100 |  |  | 8.2 | 75 |  |  |  | 31 |  |  |  |  |  |  |  |  |  | active |
| CNC(CC(C)C)C(=O)NC1C(=O)NC(CC(N)=O)C(=O)NC2C(=O)NC3C(=O)NC(C(=O)NC(C(=O)N(C(=O)NC4CCCCC4)C4CCCCC4)c4cc(O)cc(O)c4-c4cc3ccc4O)C(O)c3ccc(cc3)Oc3cc2cc(c3O)Oc2ccc(cc2Cl)C1O (centres unmarked) [Compound 102] | > 100 | > 250 | 7.5 ± 4.8 |  | > 100 | > 250 | > 250 | 32.5 ± 3.5 | 68 |  |  |  |  |  |  |  |  |  |  |
| CCCCCCCCCC[N+](C)(C)CCCNCc1c(O)cc2c(c1O)-c1cc(ccc1O)C1NC(=O)C3NC(=O)C4NC(=O)C(Cc5ccc(c(Cl)c5)Oc5cc3cc(c5O)Oc3ccc(cc3Cl)C(O)C(NC1=O)C(=O)NC2C(=O)NCCC[N+](C)(C)CCCCCCCCCC)NC(=O)C(N)c1ccc(O)c(c1)Oc1cc(O)cc4c1 (centres unmarked) [Compound 37] |  | 12 ± 2 | 1.6 ± 0.58 |  |  | 19 ± 12 | 9.4 ± 1.9 | 4.3 ± 0.58 |  | ≧2-20 μM | ≧2-20 μM | 1.5 | > 2 |  | > 5 | 43 | 43 | 3.5 |  |

Source: patent US20050250677A1, “Glycopeptide antibiotic derivatives” (priority 2002, published 2005)
